Our source for the MIC and CC50 values is ChEMBL document CHEMBL4513141, “CO-ADD screening of NIH (USA) - Clinical Collection” (2021).

Values after ≈ are worked out from the molar mass of the structure shown.

One assay has as its system Candida albicans. The assay can be described thus: microbe, parasite or virus in culture. Particulars: ATCC 90028, ASSAY_TEST Inhibition of Fungal Growth, detection method Absorption (OD530), plate type 384well, NBS, CORNING #3640.
Another assay deals with Acinetobacter baumannii. The assay can be described thus: microbe, parasite or virus in culture. Particulars: ATCC 19606, 18 h, ASSAY_TEST Inhibition of Bacterial Growth, detection method Absorption (OD600), MEDIA CAMHB, plate type 384well, NBS, CORNING #3640.
For a further assay, the system named is Klebsiella pneumoniae. The experiment in a line: microbe, parasite or virus in culture. Particulars: ATCC 700603, 18 h, ASSAY_TEST Inhibition of Bacterial Growth, detection method Absorption (OD600), MEDIA CAMHB, plate type 384well, NBS, CORNING #3640.
A further assay relates to Staphylococcus aureus. The assay can be described thus: microbe, parasite or virus in culture. Particulars: ATCC 43300, 18 h, ASSAY_TEST Inhibition of Bacterial Growth, detection method Absorption (OD600), MEDIA CAMHB, plate type 384well, NBS, CORNING #3640.
A further assay concerns Pseudomonas aeruginosa. The assay can be described thus: microbe, parasite or virus in culture. Particulars: ATCC 27853, 18 h, ASSAY_TEST Inhibition of Bacterial Growth, detection method Absorption (OD600), MEDIA CAMHB, plate type 384well, NBS, CORNING #3640.
In another assay the test system is HEK293. The experiment in a line: cells. It is filed as functional, Homo sapiens, ATCC CRL1573. Particulars: Homo sapiens, ATCC CRL1573, HEK293; ASSAY_TEST Inhibition of Cell Viability; detection method Resazurin; Fluorescence (ex560/em590); MEDIA DMEM with 10% FBS; plate type 384well; TC; CORNING #3712; time 18 hr. (In general: Resazurin is reduced to fluorescent resorufin, in cell work by metabolically active cells.)

Another assay deals with Escherichia coli. The experiment in a line: microbe, parasite or virus in culture. Particulars: ATCC 25922, 18 h, ASSAY_TEST Inhibition of Bacterial Growth, detection method Absorption (OD600), MEDIA CAMHB, plate type 384well, NBS, CORNING #3640.

For orientation: CC50 means the concentration giving 50% cytotoxicity.

Description for Acinetobacter baumannii: Antibacterial activity against Acinetobacter baumannii ATCC 19606 (CO-ADD:GN_034); MIC in CAMBH media using NBS plates, by OD600
Description for Candida albicans: Antifungal activity against Candida albicans ATCC 90028 (CO-ADD:FG_001); MIC in YNB media using NBS plates, by OD630
Description for Cryptococcus neoformans: Antifungal activity against Cryptococcus neoformans H99 ATCC 208821 (CO-ADD:FG_002); MIC in YNB media using NBS plates, by Resazurin OD(600-570)
Description for Escherichia coli: Antibacterial activity against Escherichia coli ATCC 25922 (CO-ADD:GN_001); MIC in CAMBH media using NBS plates, by OD(600)
Description for Klebsiella pneumoniae: Antibacterial activity against Klebsiella pneumoniae MDR ATCC 70063 (CO-ADD:GN_003); MIC in CAMBH media using NBS plates, by OD(600)
Description for Pseudomonas aeruginosa: Antibacterial activity against Pseudomonas aeruginosa ATCC 27853 (CO-ADD:GN_042); MIC in CAMBH media using NBS plates, by OD(600)
Description for Staphylococcus aureus: Antibacterial activity against Staphylococcus aureus MRSA ATCC 43300 (CO-ADD:GP_020); MIC in CAMBH media, using NBS plates, by OD(600)

As for `CO[C@H]1/C=C/O[C@@]2(C)Oc3c(C)c(O)c4c(O)c(c(C=NN5CCN(C6CCCC6)CC5)c(O)c4c3C2=O)NC(=O)/C(C)=C\C=C\[C@H](C)[C@H](O)[C@@H](C)[C@@H](O)[C@@H](C)[C@H](OC(C)=O)[C@@H]1C`, the MIC against Candida albicans is more than 10 µM; with Acinetobacter baumannii, more than 10 µM; in the assay with Klebsiella pneumoniae it was more than 10 µM; in the assay with Staphylococcus aureus it was not above 0.0781 µM; against Pseudomonas aeruginosa, 10 µM (≈ 8.77 µg/mL); against Escherichia coli it was 10 µM (≈ 8.77 µg/mL). The same compound registered an MIC against Cryptococcus neoformans of more than 10 µM. Besides, the CC50 in the assay with HEK293 was more than 10 µM.
With `O=C1CN(/N=C/c2ccc([N+](=O)[O-])o2)C(=O)N1` [NITROFURANTOIN], the MIC in the assay on Candida albicans, in the assay on Acinetobacter baumannii, with Klebsiella pneumoniae, in the assay on Staphylococcus aureus, against Pseudomonas aeruginosa and in the assay with Escherichia coli was more than 10 µM each time. Further, the MIC in the assay with Cryptococcus neoformans is more than 10 µM. Further, the CC50 in the assay on HEK293 is more than 10 µM.
On to `NC(=O)c1ncn(C2OC(CO)C(O)C2O)n1` (stereo not given), for which the MIC in the assay on Candida albicans, against Acinetobacter baumannii, in the assay on Klebsiella pneumoniae, against Staphylococcus aureus, in the assay with Pseudomonas aeruginosa and against Escherichia coli was more than 10 µM in each case. This compound had an MIC in the assay with Cryptococcus neoformans of more than 10 µM. This compound came in with a CC50 in the assay on HEK293 of more than 10 µM.
On to `CN(C)C1C(=O)C(C(N)=O)=C(O)C2(O)C(=O)C3=C(O)c4c(O)ccc(Cl)c4C(O)C3CC12` (stereo not given), for which the MIC in the assay on Candida albicans is more than 10 µM; against Acinetobacter baumannii, more than 10 µM; against Klebsiella pneumoniae, more than 10 µM; against Staphylococcus aureus it was 1.25 µM (≈ 0.581 µg/mL); in the assay with Pseudomonas aeruginosa, 2.5 µM (≈ 1.16 µg/mL); against Escherichia coli it was 5 µM (≈ 2.32 µg/mL). In addition, in the assay on Cryptococcus neoformans, the MIC was more than 10 µM. In addition, the half-maximal cytotoxic concentration (CC50) with HEK293 was more than 10 µM.
Regarding `CCCCCCCCCOc1ccc2[nH]cc(CCN)c2c1`, the MIC in the assay on Candida albicans, against Acinetobacter baumannii, in the assay with Klebsiella pneumoniae, in the assay on Staphylococcus aureus, against Pseudomonas aeruginosa and with Escherichia coli was more than 10 µM in each case. This compound also came in with an MIC against Cryptococcus neoformans of more than 10 µM. Also, the CC50 in the assay on HEK293 amounted to 4.05 µM.
Take `Nc1ncn([C@@H]2O[C@H](CO)[C@@H](O)[C@H]2O)c(=O)n1` [AZACITIDINE]: the MIC in the assay with Candida albicans is more than 10 µM; with Acinetobacter baumannii, more than 10 µM; against Klebsiella pneumoniae it was more than 10 µM; against Staphylococcus aureus, more than 10 µM; with Pseudomonas aeruginosa it was more than 10 µM; in the assay with Escherichia coli, 10 µM (≈ 2.44 µg/mL). For the same compound, the MIC with Cryptococcus neoformans is more than 10 µM. This compound also showed a 50% cytotoxic concentration (CC50) in the assay on HEK293 of more than 10 µM.
On to `COc1cc(Cc2cnc(N)nc2N)cc(OC)c1OC` [TRIMETHOPRIM], for which the MIC is more than 10 µM in the assay with Candida albicans; more than 10 µM against Acinetobacter baumannii; 10 µM (≈ 2.9 µg/mL) against Klebsiella pneumoniae; 5 µM (≈ 1.45 µg/mL) against Staphylococcus aureus; more than 10 µM against Pseudomonas aeruginosa; 1.25 µM (≈ 0.363 µg/mL) in the assay on Escherichia coli. The MIC in the assay on Cryptococcus neoformans was more than 10 µM. This compound returned a CC50 with HEK293 of more than 10 µM.
Regarding `N[C@@H](C(=O)N[C@@H]1C(=O)N2C(C(=O)O)=C(Cl)CS[C@H]12)c1ccccc1` [CEFACLOR ANHYDROUS], the MIC in the assay on Candida albicans, against Acinetobacter baumannii, against Klebsiella pneumoniae, with Staphylococcus aureus, against Pseudomonas aeruginosa and in the assay on Escherichia coli was more than 10 µM throughout. Moreover, in the assay on Cryptococcus neoformans, the MIC was more than 10 µM. Also, the half-maximal cytotoxic concentration (CC50) in the assay on HEK293 is more than 10 µM.
As to `OC(Cn1cncn1)(Cn1cncn1)c1ccc(F)cc1F` [FLUCONAZOLE], the MIC was 2.5 µM (≈ 0.766 µg/mL) in the assay on Candida albicans; more than 10 µM with Acinetobacter baumannii; more than 10 µM against Klebsiella pneumoniae; more than 10 µM against Staphylococcus aureus; more than 10 µM in the assay on Pseudomonas aeruginosa; more than 10 µM in the assay with Escherichia coli. Besides, the MIC against Cryptococcus neoformans is more than 10 µM. Also, in the assay on HEK293, the CC50 was more than 10 µM.
Turning to `Oc1c(Cl)cc(Cl)c2cccnc12` [CHLOROXINE], the MIC in the assay on Candida albicans is 1.25 µM (≈ 0.268 µg/mL); in the assay on Acinetobacter baumannii it was more than 10 µM; against Klebsiella pneumoniae, more than 10 µM; against Staphylococcus aureus, more than 10 µM; in the assay with Pseudomonas aeruginosa, more than 10 µM; in the assay on Escherichia coli, more than 10 µM. Also, the MIC in the assay on Cryptococcus neoformans came out at 2.5 µM (≈ 0.535 µg/mL). In the assay on HEK293, this compound had a cytotoxic concentration (CC50) of more than 10 µM.
